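Dose response: 5 concentrations. Exposure: 48 h. Format: 96-well plates. Endpoint: linear interpolation; highest concentration if not reached. Definition used: TGI = concentration required for complete inhibition of growth.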 Where a SMILES comes first, the peptide text is derived from it. The star is where a group is joined. Cbz = O=C(OCc1ccccc1)*
Legend:
Test in all cases: NCI anticancer screen, dose series, 48 h
A549 NSCLC = tested on: A549 NSCLC
CCRF-CEM leukemia = tested on: CCRF-CEM leukemia
DU-145 prostate = tested on: DU-145 prostate
KM12 colon = tested on: KM12 colon
MALME-3M melanoma = tested on: MALME-3M melanoma
NCI-H460 lung = tested on: NCI-H460 lung
OVCAR-8 ovarian = tested on: OVCAR-8 ovarian
SK-OV-3 ovarian = tested on: SK-OV-3 ovarian
TK-10 renal = tested on: TK-10 renal
UACC-257 melanoma = tested on: UACC-257 melanoma

| SMILES | TGI (A549 NSCLC) [µM] | TGI (CCRF-CEM leukemia) [µM] | TGI (DU-145 prostate) [µM] | TGI (KM12 colon) [µM] | TGI (MALME-3M melanoma) [µM] | TGI (NCI-H460 lung) [µM] | TGI (OVCAR-8 ovarian) [µM] | TGI (SK-OV-3 ovarian) [µM] | TGI (TK-10 renal) [µM] | TGI (UACC-257 melanoma) [µM] |
| --- | --- | --- | --- | --- | --- | --- | --- | --- | --- | --- |
| CCOC1OC(=O)c2cc3ccc4c(c3c(-c3ccc5c(c3)OCO5)c21)OCO4 (stereo not given) | > 100 | > 100 | > 100 | > 100 | > 100 | 28.1 | > 100 | > 29.9 | > 77.9 | > 84.5 |
| C[C@H](CCC(=O)O)[C@H]1CC[C@H]2[C@@H]3CC[C@@H]4C[C@H](O)CC[C@]4(C)[C@H]3C[C@H](O)[C@]12C | > 100 | 63.8 | > 100 | > 100 | > 100 | > 100 | > 100 | 78.1 | > 100 | > 100 |
| O=C(O)C(NCc1ccccc1)C(NCc1ccccc1)C(=O)O (stereo not given) | > 100 | > 100 | > 100 | > 100 | > 100 | > 100 | > 100 | > 100 | > 100 | > 100 |
| Cc1nc2c(nc1C)-c1[nH]c3c(c1C(=O)C2=O)CCCC3=O | 16.3 | 5.16 | 23.5 | 4.43 | 2.82 | 16.2 | 2.88 | 6.87 | 34.8 | 4.83 |
| CC1CCC(=O)C(C(=O)CC2CC(=O)N(C)C(=O)C2)C1 (stereo not given) | > 100 | > 100 | > 100 | > 100 | > 100 | > 100 | > 100 | > 100 | > 100 | > 100 |
| CCC(C)OC(=O)/C(Br)=C1/OC(=O)c2ccccc2-c2ccccc21 (stereo not given) | > 100 | 52 | > 100 | 61 | 80.6 | 73.9 | > 100 | > 100 | 43.2 | > 100 |
| CN(CC(=O)O)c1ncc2c(n1)CCCC2 | > 100 | > 100 | > 100 | > 100 | > 100 | > 100 | > 100 | > 100 | > 100 | > 100 |
| CN=C(N=Nc1c(O)[nH]c2ccccc12)SCC(=O)c1ccc(Br)cc1 | 20 | 30.8 | 30.5 | > 39.5 | > 47.1 | > 38.3 | > 40.7 | 28.4 | 37.7 | > 20 |
| CCOC(=O)CC[C@H](NC(=O)[C@H](N)Cc1ccc(N(CCCl)CCCl)cc1)C(=O)OCC | > 100 | > 49.6 | 43.9 | 31.8 | 9.92 | 17.3 | > 52.8 | > 72.8 | > 100 | 37.9 |
| CC(CO)(CO)N1C(=O)C2C3C=CC(C3)C2C1=O (stereo not given) | > 100 | > 100 | > 100 | > 100 | > 100 | > 100 | > 100 | > 100 | > 100 | > 100 |
| O=C(Oc1ccccn1)c1cc2cc(CCl)ccc2oc1=O | > 100 | > 100 | > 100 | > 100 | 31.3 | > 100 | > 100 | > 100 | > 100 | > 100 |
| CC(=O)c1[nH]c(NCc2ccccc2)c(C(=S)Nc2ccccc2)c1N | 93.9 | > 100 | > 100 | 36.9 | 38.6 | 56.5 | 39.2 | > 100 | 63.8 | 49.2 |
| N#Cc1c(-c2ccc(Cl)cc2Cl)nc2[nH][nH]c(=S)n2c1=O | > 100 | > 100 | > 100 | > 100 | > 100 | > 100 | > 100 | > 100 | > 100 | > 100 |
| O=[N+]([O-])/C(C(Cl)=C(Cl)Cl)=C(/Cl)Sc1ccccc1 | 13.5 | 0.435 | 11.2 | 32 | 3.03 | 34.6 | 0.786 | 34.3 | 5.9 | 2.55 |
| Cc1cc2oc(=N)c(C#N)c(C)c2cc1C | > 100 | > 100 | > 100 | > 100 | > 100 | > 100 | > 100 | > 100 | > 100 | > 100 |
| O=C1CCCC1CN1CCCC1 (stereo not given) | > 100 | 1.16 | > 66.4 | 35 | 3.72 | > 58.4 | 35.4 | 27.7 | 25.1 | 30.9 |
| Cc1nn(-c2ccccc2)c2c1C(c1ccc(Cl)cc1)NC(=S)N2 (stereo not given) | 69.5 | 72.8 | > 100 | 64.8 | 93.9 | 60 | 43.3 | 59.8 | 43.6 | > 100 |

| SMILES | TGI (A549 NSCLC) [µM] | TGI (CCRF-CEM leukemia) [µM] | TGI (DU-145 prostate) [µM] | TGI (KM12 colon) [µM] | TGI (MALME-3M melanoma) [µM] | TGI (NCI-H460 lung) [µM] | TGI (OVCAR-8 ovarian) [µM] | TGI (SK-OV-3 ovarian) [µM] | TGI (TK-10 renal) [µM] | TGI (UACC-257 melanoma) [µM] |
| --- | --- | --- | --- | --- | --- | --- | --- | --- | --- | --- |
| O=Cc1[nH]c(=O)[nH]c(=O)c1C(=O)O | > 100 | > 100 | > 100 | > 100 | > 100 | > 100 | > 100 | > 100 | > 100 | > 100 |
| COC(=O)C1=C(C(=O)NNc2ccccc2)N(c2cccnc2Cl)C(c2ccccc2)=CC1c1ccccc1 (stereo not given) | > 100 | > 100 | > 100 | > 100 | > 100 | > 100 | > 100 | > 100 | > 100 | > 100 |
| CCCCCCc1cc2cc(C(=O)Nc3ccccc3)c(=N)oc2cc1O | > 37.5 | > 37.9 | > 100 | 8.48 | 5.6 | > 100 | > 49.6 | > 26.5 | > 100 | > 100 |
| CN(C)CCCC12CCCCC1=Nc1ccccc12 (stereo not given) | > 100 | > 100 | > 100 | > 100 | > 100 | > 100 | > 100 | > 100 | > 100 | > 100 |
| CCOC(=O)CN1C(=O)c2ccc(NC(=O)C(=O)O)cc2S1(=O)=O | > 100 | > 100 | > 100 | > 100 | > 100 | > 100 | > 100 | > 100 | > 100 | > 100 |
| CC(O)C1(CNc2cc(Cl)nc(N)n2)CCC1 (stereo not given) | > 100 | > 100 | > 100 | > 100 | > 100 | > 100 | > 100 | > 100 | > 100 | > 100 |
| COC(CNC(=O)C(C)NC(=O)/C=C/c1ccccc1)OC (stereo not given) | > 100 | > 100 | > 100 | > 100 | > 100 | > 100 | > 100 | > 100 | > 100 | > 100 |
| O=C(O)CCC(NC(=O)OCc1ccccc1)C(=O)NC(Cc1cnc[nH]1)C(=O)O (stereo not drawn) (Cbz-Glu-His-OH; configuration not given here) | > 100 | > 100 | > 100 | > 100 | > 100 | > 100 | > 100 | > 100 | > 100 | > 100 |
| Cc1cc(S(=O)(=O)Nc2n[nH]c(N)n2)c(SCC(=O)O)cc1Cl | > 10 | > 10 | > 10 | > 10 | > 10 | > 10 | > 10 | > 10 | > 10 | > 10 |
| CSc1nc(Nc2cccc(C(F)(F)F)c2)c2c(N)nn(C)c2n1 | > 100 | > 100 | > 100 | > 100 | > 100 | > 100 | > 100 | > 100 | > 100 | > 100 |
| CC(C)(C)OC(=O)[C@H]1CCC(=S)N1Cc1ccccc1 | > 100 | > 100 | > 100 | > 100 | > 100 | > 100 | > 100 | > 100 | > 100 | > 100 |
| CC1OC(OC2C(O)COC(OC3C(C)OC(OC4C(OC(=O)[C@]56CCC(C)(C)C[C@@H]5C5=CCC7[C@@]8(C)C[C@H](O)[C@H](OC9OC(CO)C(O)C(O)C9O)[C@@](C)(CO)[C@@H]8CC[C@@]7(C)[C@]5(C)CC6)OCC(O)C4O)C(O)C3OC3OCC(O)(CO)C3O)C2O)C(O)C(O)C1O (stereo not given in full) | 18 | 44.7 | 30.3 | 52.4 | 33.8 | 42.2 | 40.4 | 34.8 | 32.1 | 28.5 |
| Oc1[nH]c2ccccc2c1N=NC(=S)Nc1cccc(Cl)c1 | 35.6 | 31 | > 100 | 58.8 | 52.3 | 65.2 | 35.7 | 61.1 | 84.8 | 75.5 |
| O=C(/C=C/c1cc2ccccc2o1)N1CCN(c2ccccn2)CC1 | > 100 | > 100 | > 100 | > 100 | > 100 | > 100 | > 100 | > 100 | > 100 | > 100 |
| COC(=O)C(Cc1c[nH]c2ccccc12)NP(=O)(O)OCC1OC(n2cc(I)c(=O)[nH]c2=O)CC1O (stereo not given) | > 100 | > 100 | > 100 | > 100 | > 100 | > 100 | > 100 | > 100 | > 100 | > 100 |
| O=C(O)[C@@H]1CCS(=O)(=O)N1 | > 100 | > 100 | > 100 | > 100 | > 100 | > 100 | > 100 | > 100 | > 100 | > 100 |
